Values joined by “and” are separate entries in the source; they are usually repeats but may differ in a detail not shown here. Equal values may be shown once. Where a SMILES comes first, the peptide text is derived from it. [ ]: non-standard residue; d: D form. Hyp = O=C(O)[C@@H]1C[C@@H](O)CN1
Test system: MMP-3
Test: Example 8 main study Luminex, LPS hPBMCs: MMP-3
Type: cell-based, human
Conditions: for MMP-3 Concentration: single replicates; for LPS-induced MMP3 (in words): at as low as 5 μM, LPS 5 ug/mL 24 hrs
Procedure: Human PBMCs were pretreated with YY-101, YDE-011, YDE-043 or reference compound; Xiidra® at various concentration (ranging from […] to 500 nM) for 2 h before stimulation. An equal volume of 0.5% DMSO was used as a vehicle control. Then, the cells were treated with LPS at 5 ug/ml, which was selected based on the pilot study. The supernatants from treated cells were harvested at 24 h and placed in a 96 well for Luminex cytokine & chemokine profiling using a Luminex 200 multiplex assay (Luminex; R&D system, USA).
The main study arm with triplicate wells per group in a 24-well plate: • 1. Blank • 2. PBMC: 0.5% DMSO • 3. PBMC+LPS (5 ug/ml) • 4. PBMC+YY-101 500 nM • 5. PBMC+YY-101 50 nM • 6. PBMC+YY-101 5 nM • 7. PBMC+YY-101 0.5 nM • 8. PBMC+LPS (5 ug/ml)+Xiidra® 500 nM • 9. PBMC+LPS (5 ug/ml)+Xiidra® 50 nM • 10. PBMC+LPS (5 ug/ml)+Xiidra® 5 nM • 11. PBMC+LPS (5 ug/ml)+Xiidra® 0.5 nM • 12. PBMC+LPS (5 ug/ml)+Xiidra® 0.05 nM • 13. PBMC+LPS (5 ug/ml)+Xiidra® 0.005 nM • 14. PBMC+LPS (5 ug/ml)+YY-101 500 nM • 15. PBMC+LPS (5 ug/ml)+YY-101 50 nM • 16. PBMC+LPS (5 ug/ml)+YY-101 5 nM • 17. PBMC+LPS (5 ug/ml)+YY-101 0.5 nM • 18. PBMC+LPS (5 ug/ml)+YY-101 0.05 nM • 19. PBMC+LPS (5 ug/ml)+YY-101 0.005 nM • 20. PBMC+LPS (5 ug/ml)+YDE-011 500 nM • 21. PBMC+LPS (5 ug/ml)+YDE-011 50 nM • 22. PBMC+LPS (5 ug/ml)+YDE-011 5 nM • 23. PBMC+LPS (5 ug/ml)+YDE-011 0.5 nM • 24. PBMC+LPS (5 ug/ml)+YDE-011 0.05 nM • 25. PBMC+LPS (5 ug/ml)+YDE-011 0.005 nM • 26. PBMC+LPS (5 ug/ml)+YDE-043 500 nM • 27. PBMC+LPS (5 ug/ml)+YDE-043 50 nM • 28. PBMC+LPS (5 ug/ml)+YDE-043 5 nM • 29. PBMC+LPS (5 ug/ml)+YDE-043 0.5 nM • 30. PBMC+LPS (5 ug/ml)+YDE-043 0.05 nM • 31. PBMC+LPS (5 ug/ml)+YDE-043 0.005 nM
Multiplex assay was used to measure 30 cytokines and chemokines. The 1:200 diluted cell supernatant and serial dilution of the standard were dispensed into a 96 well plate at 50 ul/well. Then, the pre-mixed cocktail of antibody-coated magnetic beads was dispensed at 50 ul/well and incubated at room temperature for 2 h in a horizontal orbital microplate shaker at 800±500 rpm. The beads were washed using a magnetic device to prevent loss. The biotin-antibody was dispensed in 50 ul of each well and incubated at room temperature for 1 h in a shaker at 800±500 rpm. After washing, streptavidin-PE was added at 50 ul/well and incubated at room temperature for 30 min in a shaker under the same conditions. Finally, after washing, wash buffer (100 ul/well) was added to the plate and incubated in a shaker for 2 min. The Luminex™ 200 setting were set according to the manufacturer's protocol. The data was calculated with a standard five-parameter logistic nonlinear regression analysis of the data (xPonent software 4.2, USA). Results were presented as concentration (ng/ml or pg/ml).

[1] = PBMC + LPS(5 ug/ml) + YY101 0.005 nM
[2] = PBMC + LPS(5 ug/ml) + YY101 0.05 nM
[3] = PBMC + LPS(5 ug/ml) + YY101 0.5 nM
[4] = PBMC + LPS(5 ug/ml) + YY101 5 nM
[5] = PBMC + LPS(5 ug/ml) + YY101 50 nM
[6] = PBMC + LPS(5 ug/ml) + YY101 500 nM
[7] = PBMC + LPS(5 ug/ml) + YDE043 0.005 nM
[8] = PBMC + LPS(5 ug/ml) + YDE043 0.05 nM
[9] = PBMC + LPS(5 ug/ml) + YDE043 0.5 nM
[10] = PBMC + LPS(5 ug/ml) + YDE043 5 nM
[11] = PBMC + LPS(5 ug/ml) + YDE043 50 nM
[12] = PBMC + LPS(5 ug/ml) + YDE043 500 nM
[13] = PBMC + LPS(5 ug/ml) + YDE011 0.005 nM
[14] = PBMC + LPS(5 ug/ml) + YDE011 0.05 nM
[15] = PBMC + LPS(5 ug/ml) + YDE011 0.5 nM
[16] = PBMC + LPS(5 ug/ml) + YDE011 5 nM
[17] = PBMC + LPS(5 ug/ml) + YDE011 50 nM
[18] = PBMC + LPS(5 ug/ml) + YDE011 500 nM

## CC(C)C[C@H](NC(=O)CNC(=O)[C@H](CC(=O)O)NC(=O)[C@H](CCC(N)=O)NC(=O)CNC(=O)[C@@H]1C[C@@H](O)CN1)C(=O)N[C@@H](C)C(=O)NCC(=O)N1CCC[C@H]1C(=O)N[C@@H](CCCCN)C(=O)O [YY-101] (H-[Hyp]GQDGLAGPK-OH; N-terminus and C-terminus assumed)
[1]
  MMP-3 Concentration, Mean: 7549.8 pg/mL
  MMP-3 Concentration: 7549.7 pg/mL and 7474.3 pg/mL and 7625.3 pg/mL
[2]
  MMP-3 Concentration, Mean: 8082.3 pg/mL
  MMP-3 Concentration: 7776.9 pg/mL and 8541.1 pg/mL and 7928.9 pg/mL
[3]
  MMP-3 Concentration, Mean: 7751.6 pg/mL
  MMP-3 Concentration: 7701.1 pg/ml and 7776.9 pg/ml (2×)
[4]
  MMP-3 Concentration, Mean: 7905.9 pg/mL
  MMP-3 Concentration: 7549.7 pg/ml (2×) and 8618.2 pg/ml
[5]
  MMP-3 Concentration, Mean: 7777.4 pg/mL
  MMP-3 Concentration: 7549.7 pg/mL and 7701.1 pg/mL and 8081.3 pg/mL
[6]
  MMP-3 Concentration, Mean: 7752.0 pg/mL
  MMP-3 Concentration: 8043.1 pg/mL and 7663.2 pg/mL and 7549.7 pg/mL
PBMC + YY101 0.5 nM, no LPS
  MMP-3 Concentration, Mean: 6246.3 pg/mL
  MMP-3 Concentration: 6062.8 pg/mL and 6429.9 pg/mL
PBMC + YY101 5 nM, no LPS
  MMP-3 Concentration, Mean: 6246.0 pg/mL
  MMP-3 Concentration: 6172.6 pg/mL and 6319.4 pg/mL
PBMC + YY101 0.05 uM, no LPS
  MMP-3 Concentration, Mean: 6374.8 pg/mL
  MMP-3 Concentration: 6503.7 pg/mL and 6245.9 pg/mL
PBMC + YY101 50 nM, no LPS
  MMP-3 Concentration, Mean: 6118.0 pg/mL
  MMP-3 Concentration: 6282.7 pg/mL and 5953.3 pg/mL
PBMC + YY101 500 nM, no LPS
  MMP-3 Concentration, Mean: 6356.3 pg/mL
  MMP-3 Concentration: 6282.7 pg/mL and 6429.9 pg/mL
  LPS-induced MMP3 (in words): significantly reduced

## CC(C)C[C@H](NC(=O)[C@H](CCC(N)=O)NC(=O)CNC(=O)[C@@H]1C[C@@H](O)CN1)C(=O)NCC(=O)O [YDE-043] (H-[Hyp]GQLG-OH; N-terminus and C-terminus assumed)
[7]
  MMP-3 Concentration, Mean: 7677.2 pg/mL
  MMP-3 Concentration: 7173.5 pg/mL and 7776.9 pg/mL and 8081.3 pg/mL
[8]
  MMP-3 Concentration, Mean: 7136.1 pg/mL
  MMP-3 Concentration: 7061.2 pg/mL and 7248.5 pg/mL and 7098.6 pg/mL
[9]
  MMP-3 Concentration, Mean: 7173.5 pg/mL
  MMP-3 Concentration: 7098.6 pg/mL and 7248.5 pg/mL and 7173.5 pg/mL
[10]
  MMP-3 Concentration, Mean: 7424.0 pg/mL
  MMP-3 Concentration: 7474.3 pg/ml (2×) and 7323.6 pg/ml
[11]
  MMP-3 Concentration, Mean: 7337.3 pg/mL
  MMP-3 Concentration: 7701.1 pg/mL and 7398.9 pg/mL and 6911.8 pg/mL
[12]
  MMP-3 Concentration, Mean: 7311.7 pg/mL
  MMP-3 Concentration: 7098.6 pg/mL and 7663.2 pg/mL and 7173.5 pg/mL
  LPS-induced MMP3 (in words): significantly reduced

## CC(C)C[C@H](NC(=O)CNC(=O)[C@H](CC(C)C)NC(=O)[C@H](CCC(N)=O)NC(=O)CNC(=O)[C@@H]1C[C@@H](O)CN1)C(=O)N[C@@H](C)C(=O)NCC(=O)N1CCC[C@H]1C(=O)N[C@@H](CCCCN)C(=O)O [YDE-011] (H-[Hyp]GQLGLAGPK-OH)
[13]
  MMP-3 Concentration, Mean: 7336.4 pg/mL
  MMP-3 Concentration: 7512.0 pg/mL and 7323.6 pg/mL and 7173.5 pg/mL
[14]
  MMP-3 Concentration, Mean: 7638.4 pg/mL
  MMP-3 Concentration: 7474.3 pg/mL and 7928.9 pg/mL and 7512.0 pg/mL
[15]
  MMP-3 Concentration, Mean: 7136.1 pg/mL
  MMP-3 Concentration: 7248.5 pg/mL and 7098.6 pg/mL and 7061.2 pg/mL
[16]
  MMP-3 Concentration, Mean: 6802.1 pg/mL
  MMP-3 Concentration: 6282.7 pg/mL and 6800.1 pg/mL and 7323.6 pg/mL
[17]
  MMP-3 Concentration, Mean: 6735.1 pg/mL
  MMP-3 Concentration: 7248.5 pg/mL and 7474.3 pg/mL and 5482.5 pg/mL
[18]
  MMP-3 Concentration, Mean: 6625.8 pg/mL
  MMP-3 Concentration: 7776.9 pg/mL and 5374.6 pg/mL and 6725.8 pg/mL
  LPS-induced MMP3 (in words): significantly reduced

Reference: US20230146455A1, “TREATMENT OF INFLAMMATORY DISEASES WITH PEPTIDES AND PHARMACEUTICAL COMPOSITIONS” (Yuyu Pharma, Inc., priority 2020, published 2023)
